Bridges are numbered along the chain shown (N, C = ends). Where no end group is shown, it is not given here. [ ]: non-standard residue; d: D form. Gla = N[C@@H](CC(C(=O)O)C(=O)O)C(=O)O; Hyp = O=C(O)[C@@H]1C[C@@H](O)CN1; βAla = NCCC(=O)O
Experiments:
[1] = tested on: Osteoclast-like multinucleated cells (osteoclasts); test: Calcitonin-like biological activity: bone resorption pit formation by osteoclasts on ivory pieces; type: cell-based, mouse; conditions: 48 hours
Protocol: 1-1 Preparation of Osteoclasts
Osteoclast-like multinucleated cells which were derived by coculturing mouse osteoblasts and bone marrow cells on collagen gel according to the method described in Akatsu T. et al., J. Bone Miner. Res., 7, 1297-1306 (1992) were used as osteoclasts. That is, osteoblasts derived from mouse vault of skull (5×10^5 cells) were put in a 100 mm dish (IWAKI) collagen-coated with Cellmatrix Type I-A (Nitta Gelatin Co., Ltd.) and cultured for one day in a CO2 incubator (37° C., 5% CO2) [medium: αMEM+10% FCS (both by GIBCO Co., Ltd.)]. After the medium was removed, mouse bone marrow cells (6×10^6 cells) were put on the osteoblasts and 10^-8 M calcitriol (Wako Pure Chemical Industries, Ltd.) and 10^-7 M dexamethasone (Sigma Chemical Co.) were added thereto. TRAP-positive multinucleate cells (osteoclast-like cells) which were obtained 7 days after the inoculation of osteoblasts were used as osteoclasts.
1-2 Culturing of Osteoclasts on Ivory Pieces
After removal of the medium from the dish, and rinsing with PBS(-), a mixture of collagenase and dispase (collagenase: Wako Pure Chemical Industries, Ltd., dispase: Godo Shusei Co., Ltd.) was added thereto to suspend the cells. The cell suspension was put into a tube and centrifuged at 800 rpm for 5 minutes. After removal of the supernatant by suction, the cells were suspended again in αMEM and the suspension was put on ivory pieces (diameter: 4 mm, thickness: 20 μm) in 100 μl portions. The ivory pieces were left to stand in a CO2 incubator for 2 hours to attach the osteoclasts thereto, and then taken out and gently transferred to a 48-well plate (IWAKI) to which a medium containing a test compound had been added in advance to determine the bone resorption activity 48 hours later according to the method described below. The medium containing the test compound was prepared by adding the test compound dissolved in HEPES buffer to the medium described in 1-1 to give the final concentrations shown in Tables 2 and 3.
1-3 Determination of Bone Resorption Activity by Staining of Ivory Pieces and Measurement of Bone Resorption Pit Area
The ivory pieces taken out of the medium were put into a tube containing 0.1 N aqueous ammonia and subjected to sonication treatment with a sonicator for 20-30 seconds to remove the osteoclasts. After being washed with distilled water to remove ammonia, the ivory pieces were dipped in a hematoxylin-eosin staining solution to stain resorption pits. The bone resorption pit formation rate was calculated based on microphotographs of stained ivory pieces according to the following equation by the use of an image analyzer. [formula]
The bone resorption inhibitory activity of test compounds were calculated according to the following equation. [formula]
A; Bone resorption pit formation rate obtained using no test compound
B; Bone resorption pit formation rate obtained using a test compound

male SD strain rats = test: Serum calcium content after intravenous administration to rats; type: in vivo, rat; conditions: 60 minutes after administration; for Serum calcium Content: 0.5 ml i.v. tail vein, value ± standard error
Protocol: Four-weeks-old male SD strain rats (Clea Japan, Inc.) were fasted for 24 hours before the test and were offered in groups each consisting of 8 rats. Each rat of the control group was given 0.5 ml of physiological saline (Otsuka Pharmaceutical Co., Ltd.) containing 1% BSA (Sigma Chemical Co.) by intravenous administration through the tail vein. In the same manner, each rat of Compound 9-administered groups was given 0.5 ml of a solution of Compound 9 in physiological saline containing 1% BSA. Blood was collected from the right femoral artery of a rat 60 minutes after the administration and was centrifuged at 4° C. at 3000 rpm for 15 minutes to obtain a blood serum, and the serum calcium content was determined with calcium C-test WAKO (Wako Pure Chemical Industries, Ltd.). The results are expressed in terms of value ± standard error, and the difference was judged to be statistically significant at P <0.05 according to the Williams-Wilcoxon test.

Substance | Bone resorption inhibitory activity (% inhibition) ([1]; compound concentration 10^-6 M) | further results
Compound 5: SEQ ID NO:5; cyclic peptide Compound 16 condensed to the N-terminus of the Compound 21 peptide (GNWHGTAPDGLGSLTEVLAKLAAYPRTNTGSGTP-NH2; lactam (positions not given here); not fully specified (bridges); printed as ⌐GNWHGTAPDGLGSLTEVLAKLAAYPRTNTGSGTP—NH$_2$; also: cyclic peptide Compound 16 condensed at N-terminus) | 35% | –
H-LGKLSQELHKLQTYPRTNTGSGTP-NH2 [Compound 17, reference compound] | – | Bone resorption inhibitory activity (% inhibition) ([1]; compound concentration 10^-7 M): 0%
Compound 4: SEQ ID NO:4; cyclic peptide Compound 16 condensed to the N-terminus of the Compound 20 peptide (GNWHGTAPDMLGTYTQDFNKFHTFPQTAIGVGAP-NH2; lactam (positions not given here); not fully specified (bridges); printed as ⌐GNWHGTAPDMLGTYTQDFNKFHTFPQTAIGVGAP—NH$_2$; also: cyclic peptide Compound 16 condensed at N-terminus) | 29% | –
Compound 13: SEQ ID NO:13; cyclic peptide Compound 16 condensed to the N-terminus of the Compound 29 peptide (GNWHGTAPDGLGSLTEVLAKLAEYP[dR]TNTGSGTP-NH2; lactam (positions not given here); not fully specified (bridges); printed as ⌐GNWHGTAPDGLGSLTEVLAKLAEYPrTNTGSGTP┐— NH$_2$; also: cyclic peptide Compound 16 condensed at N-terminus) | 35% | –
H-Val-Leu-Gly-Lys-Leu-Ser-Gln-Glu-Leu-His-Lys-Leu-Gln-Thr-Tyr-Pro-Arg-Thr-Asn-Thr-Gly-Ser-Gly-Thr-Pro-NH2 (H-VLGKLSQELHKLQTYPRTNTGSGTP-NH2) [Compound 18, linear partial calcitonin peptide, comparison for Compound 2, reference compound] | – | Bone resorption inhibitory activity (% inhibition) ([1]; compound concentration 10^-8 M): 15%
Compound 14: SEQ ID NO:14; cyclic peptide Compound 16 condensed to the N-terminus of the Compound 30 peptide (GNWHGTAPDGLGSLTEVLAKLAEYPKTNTGSGTP-NH2; lactam (positions not given here); not fully specified (bridges); printed as ⌐GNWHGTAPDGLGSLTEVLAKLAEYPKTNTGSGTP┐— NH$_2$; also: cyclic peptide Compound 16 condensed at N-terminus) | 40% | –
Compound 9: SEQ ID NO:9; cyclic peptide Compound 16 condensed to the N-terminus of the Compound 25 peptide (GNWHGTAPDGLGSLTEVLAKLAEYPRTNTGSGTP-NH2; lactam (positions not given here); not fully specified (bridges); printed as ⌐GNWHGTAPDGLGSLTEVLAKLAEYPRTNTGSGTP┐— NH$_2$; also: cyclic peptide Compound 16 condensed at N-terminus) | 53% | Serum calcium Content (male SD strain rats; compound concentration 1 μg/ml): 10.41 ± 0.13 mg/dL; Serum calcium Content (male SD strain rats; compound concentration 10 μg/ml): 10.20 ± 0.16 mg/dL; Serum calcium Content (male SD strain rats; compound concentration 100 μg/ml, P < 0.01 vs control): 7.54 ± 0.29 mg/dL; serum calcium content compared with that of the control group (male SD strain rats; concentration of 100 μg/l (so in the source), 0.5 ml i.v.): significantly lowered
Compound 11: SEQ ID NO:11; cyclic peptide Compound 16 condensed to the N-terminus of the Compound 27 peptide (GNWHGTAPDGLGSLTEVLAKLA[Gla]YPRTNTGSGTP-NH2; lactam (positions not given here); not fully specified (bridges); also: cyclic peptide Compound 16 condensed at N-terminus) | – | Bone resorption inhibitory activity (% inhibition) ([1]; compound concentration 10^-7 M): 42%
H-Val-Leu-Ala-Ala-Leu-Ala-Ala-Ala-Leu-Ala-Ala-Leu-Ala-Ala-Leu-Pro-Arg-Thr-Asn-Thr-Gly-Ser-Gly-Thr-Pro-NH2 (H-VLAALAAALAALAALPRTNTGSGTP-NH2) [Compound 19, linear calcitonin-like peptide, comparison for Compound 3, reference compound] | 6% | –
Compound 7: SEQ ID NO:7; cyclic peptide Compound 16 condensed to the N-terminus of the Compound 23 peptide (GNWHGTAPDGLGSLTEVLAKLAAY[Hyp]RTNTGSGT[Hyp]-NH2; lactam (positions not given here); not fully specified (bridges); also: cyclic peptide Compound 16 condensed at N-terminus) | – | Bone resorption inhibitory activity (% inhibition) ([1]; compound concentration 10^-8 M): 50%
Compound 2: SEQ ID NO:2; cyclic peptide Compound 16 condensed to the N-terminus of the Compound 18 peptide (GNWHGTAPDVLGKLSQELHKLQTYPRTNTGSGTP-NH2; lactam N-9) | – | Bone resorption inhibitory activity (% inhibition) ([1]; compound concentration 10^-8 M): 36%
Compound 6: SEQ ID NO:6; cyclic peptide Compound 16 condensed to the N-terminus of the Compound 22 peptide (GNWHGTAPDGLGSLTEVLAKLAAYPRSQTGAGTP-NH2; lactam (positions not given here); not fully specified (bridges); printed as ⌐GNWHGTAPDGLGSLTEVLAKLAAYPRSQTGAGTP—NH$_2$; also: cyclic peptide Compound 16 condensed at N-terminus) | 29% | –
Compound 8: SEQ ID NO:8; cyclic peptide Compound 16 condensed to the N-terminus of the Compound 24 peptide (GNWHGTAPDGLGSLTEVLAKLAAYPRTNT[βAla]SGTP-NH2; lactam (positions not given here); not fully specified (bridges); also: cyclic peptide Compound 16 condensed at N-terminus) | 39% | –
Compound 3: SEQ ID NO:3; cyclic peptide Compound 16 condensed to the N-terminus of the Compound 19 peptide (GNWHGTAPDVLAALAAALAALAALPRTNTGSGTP-NH2; lactam (positions not given here); not fully specified (bridges); printed as ⌐GNWHGTAPDVLAALAAALAALAALPRTNTGSGTP—NH$_2$) | 65% | –
Compound 10: SEQ ID NO:10; cyclic peptide Compound 16 condensed to the N-terminus of the Compound 26 peptide (GNWHGTAPDGLGSLT[Gla]VLAKLAEYPRTNTGSGTP-NH2; lactam (positions not given here); not fully specified (bridges); also: cyclic peptide Compound 16 condensed at N-terminus) | 27% | –
Compound 1: SEQ ID NO:1; cyclic peptide Compound 15 condensed to the N-terminus of the Compound 17 peptide (GNWHGTAPDWLGKLSQELHKLQTYPRTNTGSGTP-NH2; lactam N-9) | – | Bone resorption inhibitory activity (% inhibition) ([1]; compound concentration 10^-7 M): 61%
